From ChEMBL document CHEMBL1123310, “Spin probes as mechanistic inhibitors and active site probes of thymidylate synthetase” (J Med Chem, 1986)

What was measured:
Thymidylate synthase [1] = target: T1, Thymidylate synthase (Lactobacillus casei, UniProt P00469); experiment: In vitro inhibitory activity against Thymidylate synthetase was evaluated; parameters: species or system Lacticaseibacillus casei
T1 sequence (P00469 whole entry): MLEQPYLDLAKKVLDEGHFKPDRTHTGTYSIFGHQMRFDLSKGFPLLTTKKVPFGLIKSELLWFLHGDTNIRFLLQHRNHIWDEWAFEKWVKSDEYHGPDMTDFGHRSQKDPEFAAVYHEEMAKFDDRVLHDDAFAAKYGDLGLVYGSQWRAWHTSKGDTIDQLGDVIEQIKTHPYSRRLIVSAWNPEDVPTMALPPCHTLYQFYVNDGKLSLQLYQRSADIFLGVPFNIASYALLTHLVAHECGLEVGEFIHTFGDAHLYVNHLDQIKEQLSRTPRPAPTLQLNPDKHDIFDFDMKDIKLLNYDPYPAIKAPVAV

[2] = target: T2, Thymidylate synthase (Lactobacillus casei) (UniProt P00469); experiment: The high gain spectrum and that of thymidylate synthetase both at high and low peaks indicating its binding activity; settings: Lacticaseibacillus casei
T2 sequence (whole entry): T1 sequence (P00469 whole entry)

[3] = target: T2, Thymidylate synthase (Lactobacillus casei); experiment: Association constant (Kassoc) towards Thymidylate synthetase binding site by electron spin resonance; settings: Lacticaseibacillus casei
[4] = target: T2, Thymidylate synthase (Lactobacillus casei); settings: Lacticaseibacillus casei
Description: Association constant (Kassoc) towards Thymidylate synthase binding site by electron spin resonance

Thymidylate synthase [5] = target: T1, Thymidylate synthase; experiment: In vitro inhibitory activity against Thymidylate synthase was evaluated; parameters: species or system Lacticaseibacillus casei
[6] = target: T2, Thymidylate synthase (Lactobacillus casei); settings: Lacticaseibacillus casei; remark: listed apart in the source

SMILES	Ki (Thymidylate synthase [1]) [µM]	2T11 [2]	K ass [3] [M⁻¹]	K ass [4] [M⁻¹]	Ki (Thymidylate synthase [5]) [µM]	2T11 [6]
CC1(C)C=C(C(=O)NC/C=C/c2cn([C@H]3C[C@H](O)[C@@H](CO)O3)c(=O)[nH]c2=O)C(C)(C)N1[O]	9.2	60	190000	–	–	–
CC1(C)CC(NC(=O)CSc2cn([C@H]3C[C@H](O)[C@@H](CO)O3)c(=O)[nH]c2=O)CC(C)(C)N1[O]	–	–	–	240000	89	61
NC/C=C/c1cn([C@H]2C[C@H](O)[C@@H](COP(=O)(O)O)O2)c(=O)[nH]c1=O	7.9	–	–	–	–	–
